Series [1] deals with Influenza A/Puerto Rico/8/34 (H1N1) virus. The series can be described thus: microbe, parasite or virus in culture. In kind it is cell-based.
A short description of a further series: in vitro. The note with it: dog.

Some results are limits rather than exact numbers.

1 compound from PMC10053623, “Water-Soluble Fullerene C60 Derivatives Are Effective Inhibitors of Influenza Virus Replication” (Microorganisms, 2023) can be followed below.

Regarding `CCC(CC)O[C@@H]1C=C(C(=O)O)C[C@H](N)[C@H]1NC(C)=O` [Oseltamivir carboxylate], the “SI, selectivity index, the ratio of CC50 to IC50” value in series [1] is reported as greater than 667. Further, the IC50 in series [1] (Influenza A virus, H1N1, MDCK, 72 h, read-out: IC50, inhibitory concentration causing a 50% decrease in virus-induced cell death) was 300 ± 20 nM. Further, the CC50 at 72 h in “in vitro” was greater than 200000 nM.
